The record followed here is US20230263798A1, “COMPOSITIONS AND METHODS FOR TREATING THERAPY RESISTANT CANCER” (The General Hospital Corporation, priority 2020, published 2023).

The structures appear in SMILES notation.

In experiment [1] the test system is METTL3. Kind of experiment: Western blot analysis of METTL3 in MCF7 cells. The experiment is classed as cell-based. As to conditions: MCF7 cells, agent alone vs untreated/buffer, Western blot. From the text:
(§1) The Western blot includes samples with control shRNA or shMETTL3. […] Tubulin and Histone serve as Western blot loading controls. Data are average of 3 replicates +/-SEM. See also FIGS. 2A-2G.
(§2) Data are average of 3 replicates +/-SEM. Tubulin serves as the loading control.
(§3) Tubulin and Histone serve as Western blot loading controls. Data are average of 3 replicates +/-SEM. See also FIGS. 4A-4H.
(§4) Actin and Tubulin are loading controls for Western blots. Data are average of 3 replicates +/-SEM.
(§5) FIGS. 8C and 8D show Western blot analysis of PARP1, phospho-elF2α, METTL3 with doxorubicin or Sal003 treatment. […] 500 nM Doxorubicin treated MCF7 cells were co-treated with 6uM of Enzastaurin or DMSO buffer. […] Data are average of 3 replicates +/-SEM.
To determine the mechanisms of specific mRNA expression in chemosurviving cancer cells, we examined RNA binding regulators in chemosurviving MCF7 breast cancer cells, isolated after doxorubicin chemotherapy treatment.

Experiment [2] deals with METTL3. Kind of experiment: Western blot of METTL3 in BT549 cells. It is filed as cell-based. The conditions noted are these: over time of treatment. For orientation: A western blot detects proteins with antibodies after separation by electrophoresis.
The subject of experiment [3] is phospho-elF2α. Kind of experiment: Western blot of elF2α phosphorylation in MCF7 cells. It is filed as cell-based. The conditions noted are these: MCF7 cells, agent alone, Western blot. On the procedure: as §5
Experiment [4] concerns phospho-elF2α. Kind of experiment: Western blot of elF2α phosphorylation in BT549 cells. The experiment is classed as cell-based. The conditions noted are these: over time of treatment. On the procedure:
as §2
To determine the mechanisms of specific mRNA expression in chemosurviving cancer cells, we examined RNA binding regulators in chemosurviving MCF7 breast cancer cells, isolated after doxorubicin chemotherapy treatment. […] The increase observed is transient and is not observed at 48 h of treatment (FIG. 2A).

The subject of a further experiment is m6A on RNA. Kind of experiment: m6A on ribosomal RNA depleted RNA (dot blot, 2D-TLC). The experiment is classed as cell-based. As to conditions: ribosomal RNA depleted RNA from treated vs untreated MCF7 cells; dot blot or 2D-TLC. As to the method: The Western blot includes samples with control shRNA or shMETTL3. […] Tubulin and Histone serve as Western blot loading controls. Data are average of 3 replicates +/-SEM. See also FIGS. 2A-2G. […]
To test whether the increased m6A modification enzymes lead to increased m6A modification on RNA, ribosomal RNA depleted RNA from doxorubicin treated cells compared to untreated cells by dot blot analyses was tested. […] Consistent with decreased METTL3 upon knockdown, the dot blot signal is depleted when METTL3 is knocked down (FIG. 1B). Second, RNA from doxorubicin treated cells for m6A by two-dimensional-thin layer chromatography separation (2D-TLC) was performed (H. Grosjean, G. Keith, L. Droogmans, Detection and quantification of modified nucleotides in RNA using thin-layer chromatography. Methods in molecular biology (Clifton, N.J.) 265, 357-391 (2004)).

Experiment [5] has as its system METTL3. Kind of experiment: Western blot of METTL3 in breast cancer patient samples grown in 3D cultures. The experiment is classed as cell-based. The conditions noted are these: hormone positive breast cancer patient samples grown as tumor spheres.
Text: as §1
As METTL3 increases in chemosurviving cells and increases m6A on RNA, we tested whether METTL3 increase is needed for chemosurvival by depleting METTL3 or overexpressing METTL3 or a catalytically defective METTL3 (CD-M3) mutant and then tested these cells for doxorubicin survival.

Experiment [6] relates to METTL3. Kind of experiment: Western blot of METTL3 in patient-derived xenografts treated in vivo. As to conditions: hormone positive breast cancer patient derived xenografts, 2-1 0 mg/kg doxorubicin in vivo.
The next experiment relates to METTL3 mRNA. Kind of experiment: METTL3 mRNA level and translation (qPCR, polysome fractionation, nascent amino acid labeling). It is filed as cell-based. As to the method: as §3, §4
To verify that the increase in METTL3 was at the translation level, polysome analysis was conducted first. […] We next verified increased polysome association of METTL3 mRNA with Y10B antibody immunoprecipitation in doxorubicin treated and in Sal003 cells compared to buffer treated cells (FIGS. 3I and 4F).

Another experiment deals with PARP1. Kind of experiment: Western blot analysis of PARP1. The conditions noted are these: treated cells. It is filed as cell-based. On the procedure:
as §5
Consistently, doxorubicin treated cells are sensitive to PARP inhibitors, such as Talazoparib (BMN-673, FIG. 8B).

In the next experiment the test system is METTL3 5′UTR. Kind of experiment: Firefly luciferase reporter bearing the 5′UTR of METTL3. It is filed as cell-based. As to conditions: doxorubicin treated vs untreated cells, normalized to Renilla. From the text:
FIGS. 5A-5I show HuR and associated translation initiation factors promote METTL3 translation in doxorubicin resistant cells. […] Tubulin is the loading control for Western blots. Data are average of 3 replicates +/-SEM. See also FIGS. 6A-6K.
To test if METTL3 mRNA encodes for cis-acting elements that direct its translation upregulation in doxorubicin-treated cells, we constructed Luciferase reporters bearing METTL3 mRNA 5′UTR and 3′UTR, or their reverse sequences or vector sequence as controls. We tested these reporters and their controls in untreated and doxorubicin treated cells. […] Importantly, RNA levels of the 5′UTR reporter remained unaffected between doxorubicin treated compared to untreated cells, and compared to reverse or vector reporters, indicating translation control.
In general terms: Reporter assays use an easily measured gene product as a stand-in for the process of interest.

The test system of another experiment is HuR. Kind of experiment: Western blot of HuR. The experiment is classed as cell-based. As to conditions: over time of doxorubicin treatment. From the text:
Western blot is shown of other RNA binding proteins that increase in mass spectrometry data. […] FIGS. 6J and 6K show Hexim, PPM1G and HuR increase in chemotreated patient samples and on doxorubicin treatment.

The next experiment concerns METTL14. Kind of experiment: Western blot of METTL14 in breast cancer patient samples grown as tumor spheres. The experiment is classed as cell-based.

Take `COc1cccc2c1C(=O)c1c(O)c3c(c(O)c1C2=O)C[C@@](O)(C(=O)CO)C[C@@H]3O[C@H]1C[C@H](N)[C@H](O)[C@H](C)O1` [doxorubicin]: the METTL3 level entry is listed as “increases” in the experiment on METTL3 [1], “transient increase” in the experiment with METTL3 [2], “increased” in the experiment on METTL3 [5] and “increases” in the experiment on METTL3 [6]. Also, the elF2α phosphorylation result is given as “phosphorylated over time” in the experiment with phospho-elF2α [3] and “transient increase” in the experiment with phospho-elF2α [4]. In addition, the “m6A on RNA” value with m6A on RNA is reported as “more m6A modified RNA”. Moreover, the “labeled (newly translated) METTL3, nascent translation assay” value in the experiment on METTL3 mRNA (Click-it Puro labeling, METTL3 immunoprecipitation, treated vs untreated) is “increase”. Besides, in the experiment with METTL3 mRNA (doxorubicin treated vs untreated cells), the “METTL3 and METTL14 RNA levels by qPCR” value is “no increase”. For the same compound, the “METTL3 mRNA on polysomes compared to monosomes” value with METTL3 mRNA (treated vs buffer treated cells, polysome fractionation and qPCR) is on record as “increased”. Also, in the experiment on PARP1, the PARP1 level result is “increases”. In addition, the “METTL3 5′UTR luciferase reporter translation” value in the experiment with METTL3 5′UTR is “enhanced translation”. The HuR level entry in the experiment on HuR was “increase”. Moreover, the METTL14 level result in the experiment with METTL14 is “Increase”.
